Test results from patent publication US20240252445A1, “COMPOSITIONS AND METHODS OF PROMOTING AC[…] […] AND DIAGNOSTIC AGENTS IN THE HEART” (CASE WESTERN RESERVE UNIVERSITY, priority 2021, published 2024).

Conditions: NBDG 1 mg/kg

For `O=[N+]([O-])c1ccc(N[C@H]2C(O)O[C@H](CO)[C@@H](O)[C@@H]2O)c2nonc12` (some centres unmarked) [NBDG], the NBDG fluorescence localisation (animals pre-injected with ePL, after organ perfusion) was “highly localized in the heart” and the “NBDG fluorescence in the heart in competition with unlabeled glucose” value (ePL pre-injected, unlabeled glucose 500 mg/kg) was “diminished”.
